PubChem BioAssay AID248 (DTP/NCI, 2004)
“And” between values parts separate entries of the source, which are not always exact repeats. Equal entries are not always repeated. Inconclusive results and toxic doses are left out. No stated cut-off is given here; in the data, active means T/C of 150% or more; inactive means T/C below 125%.

Tested on: L1210 leukemia ip in BDF1 mice, survival T/C
Assay: NCI In Vivo Anticancer Drug Screen. Data for tumor model L1210 Leukemia (intraperitoneal) in B6D2F1 (BDF1) mice
Conditions: endpoint: mean survival time, higher = longer survival
In short: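 Each compound was tested against a transplantable tumor grown in mice. The endpoint was survival, with treated animals benchmarked against vehicle controls as a simple ratio.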

[1] = dose: 100.0 mg/kg/injection, schedule: Q01DX009 (ip), vehicle: Klucel (hydroxypropylcellulose) (HPC)
[2] = dose: 100.0 mg/kg/injection, schedule: Q04DX003 (ip), vehicle: Klucel (hydroxypropylcellulose) (HPC)
[3] = dose: 200.0 mg/kg/injection, schedule: Q01DX009 (ip), vehicle: Klucel (hydroxypropylcellulose) (HPC)
[4] = dose: 200.0 mg/kg/injection, schedule: Q04DX003 (ip), vehicle: Klucel (hydroxypropylcellulose) (HPC)
[5] = dose: 400.0 mg/kg/injection, schedule: Q01DX009 (ip), vehicle: Klucel (hydroxypropylcellulose) (HPC)
[6] = dose: 400.0 mg/kg/injection, schedule: Q04DX003 (ip), vehicle: Klucel (hydroxypropylcellulose) (HPC)
[7] = dose: 100.0 mg/kg/injection, schedule: Q04DX002 (ip), vehicle: saline with Tween-80
[8] = dose: 200.0 mg/kg/injection, schedule: Q04DX002 (ip), vehicle: saline with Tween-80
[9] = dose: 400.0 mg/kg/injection, schedule: Q04DX002 (ip), vehicle: saline with Tween-80
[10] = dose: 100.0 mg/kg/injection, schedule: Q04DX003 (ip), vehicle: saline with Tween-80
[11] = dose: 200.0 mg/kg/injection, schedule: Q04DX003 (ip), vehicle: saline with Tween-80
[12] = dose: 400.0 mg/kg/injection, schedule: Q04DX003 (ip), vehicle: saline with Tween-80
[13] = dose: 100.0 mg/kg/injection, schedule: Q04DX002 (ip), vehicle: Klucel (hydroxypropylcellulose) (HPC)
[14] = dose: 200.0 mg/kg/injection, schedule: Q04DX002 (ip), vehicle: Klucel (hydroxypropylcellulose) (HPC)
[15] = dose: 400.0 mg/kg/injection, schedule: Q04DX002 (ip), vehicle: Klucel (hydroxypropylcellulose) (HPC)
[16] = dose: 100.0 mg/kg/injection, schedule: Q01DX009 (ip), vehicle: saline with Tween-80
[17] = dose: 200.0 mg/kg/injection, schedule: Q01DX009 (ip), vehicle: saline with Tween-80
[18] = dose: 400.0 mg/kg/injection, schedule: Q01DX009 (ip), vehicle: saline with Tween-80
[19] = dose: 100.0 mg/kg/injection, schedule: Q01DX009 (ip), vehicle: saline
[20] = dose: 100.0 mg/kg/injection, schedule: Q01DX001 (ip), vehicle: carboxymethylcellulose (CMC)
[21] = dose: 200.0 mg/kg/injection, schedule: Q01DX001 (ip), vehicle: carboxymethylcellulose (CMC)
[22] = dose: 400.0 mg/kg/injection, schedule: Q01DX001 (ip), vehicle: carboxymethylcellulose (CMC)
[23] = dose: 50.0 mg/kg/injection, schedule: Q01DX001 (ip), vehicle: carboxymethylcellulose (CMC)

Measured: T/C

O=C(/C=C/c1ccc(O)cc1)c1ccc(Cl)cc1
inactive: dose: 100.0 mg/kg/injection, schedule: Q01DX001 (ip), vehicle: saline 98 % of control | dose: 200.0 mg/kg/injection, schedule: Q01DX001 (ip), vehicle: saline 87 % of control | dose: 400.0 mg/kg/injection, schedule: Q01DX001 (ip), vehicle: saline 90 % of control

Cc1cc(OC(=O)Nc2ccc(Cl)c(Cl)c2)ccc1Cl
inactive: [1] 102 % of control | [2] 96 % of control | [3] 98 % of control | [4] 104 % of control | [5] 95 % of control | [6] 101 % of control

CC(O)C(=O)SCc1ccccc1 (configuration not stated)
inactive: [7] 95 % of control | [8] 98 % of control | [9] 92 % of control

CC(C)CC(C=NCC(CCN1CCOCC1)(CC(C)C)c1cccc2ccccc12)(CCN1CCOCC1)c1cccc2ccccc12 (configuration not stated)
inactive: [1] 94 % of control | [3] 90 % of control | [5] 92 % of control

O=CC(O)C(Cl)C(Cl)C(O)CCl (configuration not stated)
inactive: [7] 98 % of control | [8] 98 % of control | [9] 102 % of control

O=P(NC12CC3CC(CC(C3)C1)C2)(c1ccccc1)N1CC1 (configuration not stated)
inactive: [2] 86 % of control | [4] 88 % of control | [6] 89 % of control

O=C(/C=C/c1ccccc1)NC(=S)Nc1cccc2ccccc12
inactive: dose: 25.0 mg/kg/injection, schedule: Q01DX009 (ip), vehicle: saline with Tween-80 96 % of control and 90 % of control | dose: 50.0 mg/kg/injection, schedule: Q01DX009 (ip), vehicle: saline with Tween-80 94 % of control | dose: 100.0 mg/kg/injection, schedule: Q01DX001 (ip), vehicle: saline with Tween-80 93 % of control | dose: 100.0 mg/kg/injection, schedule: Q04DX002 (ip), vehicle: alcohol 87 % of control | [10] 86 % of control | dose: 200.0 mg/kg/injection, schedule: Q01DX001 (ip), vehicle: saline with Tween-80 97 % of control | dose: 200.0 mg/kg/injection, schedule: Q04DX002 (ip), vehicle: alcohol 97 % of control | [11] 100 % of control | dose: 400.0 mg/kg/injection, schedule: Q01DX001 (ip), vehicle: saline with Tween-80 93 % of control | dose: 400.0 mg/kg/injection, schedule: Q04DX002 (ip), vehicle: alcohol 93 % of control | [12] 105 % of control

O=Cc1nc2ccccc2cc1CCl
inactive: dose: 75.0 mg/kg/injection, schedule: Q01DX001 (ip), vehicle: saline 92 % of control

OC(COc1ccccc1)COc1ccccc1
inactive: [2] 105 % of control | [10] 96 % of control | [4] 105 % of control | [11] 95 % of control | [6] 106 % of control | [12] 93 % of control

O=C1C2C=CC=CC1C=C2
inactive: dose: 50.0 mg/kg/injection, schedule: Q01DX009 (ip), vehicle: Klucel (hydroxypropylcellulose) (HPC) 89 % of control | dose: 100.0 mg/kg/injection, schedule: Q01DX001 (ip), vehicle: Klucel (hydroxypropylcellulose) (HPC) 92 % of control | [1] 112 % of control | dose: 200.0 mg/kg/injection, schedule: Q01DX001 (ip), vehicle: Klucel (hydroxypropylcellulose) (HPC) 101 % of control | [3] 91 % of control | dose: 400.0 mg/kg/injection, schedule: Q01DX001 (ip), vehicle: Klucel (hydroxypropylcellulose) (HPC) 95 % of control

CSc1ccc(NC(=O)Nc2ccc(Cl)cc2[N+](=O)[O-])cc1
inactive: [1] 97 % of control | [3] 91 % of control

CCOC(=O)N/N=C/c1ccc(O)cc1
inactive: [13] 91 % of control | [14] 102 % of control | [15] 91 % of control

O=c1oc(-c2ccccc2)nc2cc(Cl)ccc12
inactive: dose: 25.0 mg/kg/injection, schedule: Q04DX003 (ip), vehicle: saline with Tween-80 104 % of control | dose: 50.0 mg/kg/injection, schedule: Q04DX003 (ip), vehicle: saline with Tween-80 92 % of control | [16] 90 % of control | [10] 96 % of control and 103 % of control and 88 % of control | [17] 87 % of control | [11] 98 % of control | [18] 92 % of control | [12] 90 % of control

CCNC(=S)Nc1cccc(C)c1
inactive: dose: 25.0 mg/kg/injection, schedule: Q04DX002 (ip), vehicle: gum acacia 102 % of control | dose: 50.0 mg/kg/injection, schedule: Q04DX002 (ip), vehicle: gum acacia 97 % of control | dose: 100.0 mg/kg/injection, schedule: Q04DX002 (ip), vehicle: gum acacia 97 % of control | dose: 200.0 mg/kg/injection, schedule: Q04DX002 (ip), vehicle: gum acacia 89 % of control

COC(=O)Nc1cccc(OC(=O)NC(C)C)c1
inactive: [10] 95 % of control | [11] 93 % of control | [12] 93 % of control

CC(=O)OCCCCBr
inactive: [19] 100 % of control | [2] 98 % of control | dose: 200.0 mg/kg/injection, schedule: Q01DX009 (ip), vehicle: saline 98 % of control | [4] 91 % of control | dose: 400.0 mg/kg/injection, schedule: Q01DX009 (ip), vehicle: saline 98 % of control | [6] 94 % of control

O=c1c2ccccc2c(-c2ccccc2)nn1Cc1ccccc1
inactive: [16] 93 % of control | [17] 102 % of control | [18] 104 % of control

CC1(C)CC(=O)N(c2ccccc2)N1
inactive: [2] 94 % of control | [4] 103 % of control | [6] 107 % of control

CCC/C(=C/c1cc2ccccc2c2ccccc12)[N+](=O)[O-]
inactive: [20] 97 % of control | [21] 111 % of control | [22] 106 % of control

CC1CCOC(C)(CCl)O1 (configuration not stated)
inactive: [7] 98 % of control | [8] 95 % of control | [9] 98 % of control

CCCCCCCCCCOC(=O)N1C(=O)NC(=O)C1c1ccccc1 (configuration not stated)
inactive: [1] 104 % of control | [2] 103 % of control | [3] 104 % of control | [4] 97 % of control | [5] 96 % of control | [6] 93 % of control

O=C(Nc1ccc(Cl)c(Cl)c1)Nc1ccc(Cl)c(Cl)c1
inactive: [13] 100 % of control | [14] 90 % of control | [15] 86 % of control

CCC(C)C(CCCN1CCCCC1)(CNC(=O)CN(CC)CC)c1cccc2ccccc12 (configuration not stated)
inactive: dose: 25.0 mg/kg/injection, schedule: Q01DX009 (ip), vehicle: saline 96 % of control | dose: 50.0 mg/kg/injection, schedule: Q01DX009 (ip), vehicle: saline 100 % of control | [19] 103 % of control | dose: 100.0 mg/kg/injection, schedule: Q04DX003 (ip), vehicle: saline 103 % of control

C=C1C[C@]23C[C@H](O)[C@]4(O)[C@@]5(C)C[C@H](O)C[C@]46C(C2[C@@H]1[C@@H](OC(=O)/C(C)=C/C)[C@@H](OC(=O)/C(C)=C/C)[C@H]36)N(C)C5 (some centres not stated)
inactive: [23] 95 % of control | [20] 106 % of control | [21] 106 % of control | [22] 114 % of control

CSc1ccc(NC(=O)Nc2cc(C)ccc2Cl)cc1
inactive: [1] 86 % of control | [3] 93 % of control | [5] 88 % of control

CCOC(=O)Nc1nn[nH]n1
inactive: [23] 92 % of control | [20] 97 % of control | [21] 101 % of control | [22] 90 % of control

CC(C)CC(C)NCC(C)O (configuration not stated)
inactive: dose: 75.0 mg/kg/injection, schedule: Q01DX001 (ip), vehicle: acid diluted with saline 100 % of control | dose: 150.0 mg/kg/injection, schedule: Q01DX001 (ip), vehicle: acid diluted with saline 100 % of control

COc1cc(/C=C2/CCCCC2=O)ccc1O
inactive: dose: 100.0 mg/kg/injection, schedule: Q04DX003 (ip), vehicle: other 93 % of control | dose: 200.0 mg/kg/injection, schedule: Q04DX003 (ip), vehicle: other 100 % of control | dose: 400.0 mg/kg/injection, schedule: Q04DX003 (ip), vehicle: other 94 % of control
